Each block holds one compound with its values, some of them ahead of it. Calls of active or inactive are those of the source. The calls are words filed in the database; no cut-off is given here.
Tests used:
[1] = target: T1, Glycogen synthase kinase-3 alpha (Homo sapiens, UniProt P49840); experiment: Inhibition of human GSK-3alpha S449A mutant (2 to end residues) using phospho GS2 peptide as substrate after 40 mins in presence of [gamma-33ATP] by scintillation counting method
[2] = target: Glycogen synthase kinase-3 beta (Homo sapiens, UniProt P49841, H350L); experiment: Inhibition of human GSK-3beta H350L mutant (2 to end residues) at 10 uM using phospho GS2 peptide as substrate after 40 mins by [gamma-33ATP] radiometric assay
Glycogen synthase kinase-3 beta (Homo sapiens, UniProt P49841, H350L), sequence (P49841 whole entry, looked up, stated change not applied): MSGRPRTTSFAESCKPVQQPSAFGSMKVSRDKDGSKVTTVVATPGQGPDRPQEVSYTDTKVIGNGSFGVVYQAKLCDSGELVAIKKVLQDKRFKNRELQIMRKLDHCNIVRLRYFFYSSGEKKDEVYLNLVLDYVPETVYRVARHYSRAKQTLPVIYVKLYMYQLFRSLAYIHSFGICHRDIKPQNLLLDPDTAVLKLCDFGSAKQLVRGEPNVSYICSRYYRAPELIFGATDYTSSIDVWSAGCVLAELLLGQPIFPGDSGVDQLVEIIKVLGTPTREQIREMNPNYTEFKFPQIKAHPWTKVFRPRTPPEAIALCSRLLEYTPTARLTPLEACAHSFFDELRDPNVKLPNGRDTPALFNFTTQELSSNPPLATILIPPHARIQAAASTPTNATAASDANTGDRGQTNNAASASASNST

Homo sapiens = species: Homo sapiens; experiment: Selectivity index, ratio of IC50 for inhibition of human GSK-3beta H350L mutant (2 to end residues) to IC50 for inhibition of human GSK-3alpha S449A mutant (2 to end residues)
[3] = test system: Glycogen synthase kinase-3 alpha (Homo sapiens), P49840 [UNDEFINED MUTATION]; experiment: Inhibition of human GSK-3alpha S449A mutant (2 to end residues) at 10 uM using phospho GS2 peptide as substrate after 40 mins in presence of [gamma-33ATP] by scintillation counting method relative to control
Glycogen synthase kinase-3 alpha (Homo sapiens), P49840 [UNDEFINED MUTATION], sequence (P49840 whole entry, looked up, stated change not applied, the tested form may be a part): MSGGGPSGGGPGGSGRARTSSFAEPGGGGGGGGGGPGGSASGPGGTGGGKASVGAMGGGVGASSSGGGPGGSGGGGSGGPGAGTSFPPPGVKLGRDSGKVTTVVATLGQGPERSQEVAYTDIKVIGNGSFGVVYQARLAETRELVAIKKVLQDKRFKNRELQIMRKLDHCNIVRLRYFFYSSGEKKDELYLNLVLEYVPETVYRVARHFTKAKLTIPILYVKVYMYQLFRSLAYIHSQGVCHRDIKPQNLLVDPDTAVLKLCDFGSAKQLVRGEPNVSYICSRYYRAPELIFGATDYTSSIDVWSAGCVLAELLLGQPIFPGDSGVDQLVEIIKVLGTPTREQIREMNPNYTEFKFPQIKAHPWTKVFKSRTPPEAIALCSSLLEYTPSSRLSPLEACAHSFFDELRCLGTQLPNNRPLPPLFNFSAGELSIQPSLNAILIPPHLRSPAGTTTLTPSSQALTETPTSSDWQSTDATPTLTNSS

GSK-3beta (H350L mutant) = GSK-3beta (H350L mutant) (Homo sapiens, UniProt P49841, H350L); experiment: Inhibition of human GSK-3beta H350L mutant (2 to end residues) at 10 uM using phospho GS2 peptide as substrate after 40 mins by [gamma-33ATP] radiometric assay relative to control; settings: human GSK-3beta H350L mutant enzyme (residues 2 to end), probe phospho GS2 peptide
GSK-3beta (H350L mutant), sequence (P49841 whole entry, looked up, stated change not applied, the tested form may be a part): as the sequence (P49841 whole entry, looked up, stated change not applied) above

[4] = target: T2, Glycogen synthase kinase-3 beta (Homo sapiens, UniProt P49841); experiment: Inhibition of human GSK-3beta using YRRAAVPPSPSLSRHSSPHQ(pS)EDEEE as substrate measured in presence of [gamma-33P]ATP by radiometric assay
T2 sequence (P49841 whole entry): as the sequence (P49841 whole entry, looked up, stated change not applied) above

NB-4 [5] = experiment: Induction of monocytic differentiation in human NB4 cells assessed as increase in CD14 positive cells at 30 uM after 6 days by FITC staining based flow cytometry analysis; type: functional, cell-based
HL-60 [6] = experiment: Induction of monocytic differentiation in human HL60 monocytic assessed as increase in CD11c-APC positive cells at 30 uM after 6 days by flow cytometry analysis; type: functional, cell-based
NB-4 [7] = experiment: Induction of monocytic differentiation in human NB4 cells assessed as increase in CD11c-APC positive cells at 30 uM after 6 days by flow cytometry analysis; type: functional, cell-based
HL-60 [8] = experiment: Induction of monocytic differentiation in human HL60 cells assessed as increase in CD11b-APC-Cy7 positive cells at 30 uM after 6 days by flow cytometry analysis; type: functional, cell-based
[9] = Activation of wnt/beta-catenin signalling pathway in human HL60 cells assessed as stabilization of beta-catenin at 30 uM after 24 hrs by Western blot analysis; type: cell-based
[10] = target: T1, Glycogen synthase kinase-3 alpha; experiment: Inhibition of human GSK-3alpha using YRRAAVPPSPSLSRHSSPHQ(pS)EDEEE as substrate measured in presence of [gamma-33P]ATP by radiometric assay
[11] = Activation of wnt/beta-catenin signalling pathway in human NB4 cells assessed as stabilization of beta-catenin at 30 uM after 24 hrs by Western blot analysis; type: cell-based
NB-4 [12] = experiment: Induction of monocytic differentiation in human NB4 cells assessed as increase in CD11b-APC-Cy7 positive cells at 30 uM after 6 days by flow cytometry analysis; type: functional, cell-based
HL-60 [13] = experiment: Antiproliferative activity against human HL60 cells assessed as reduction in viability at 1 to 30 uM after 3 days by SRB assay; type: functional, cell-based
NB-4 [14] = experiment: Antiproliferative activity against human NB4 cells assessed as reduction in viability at 1 to 30 uM after 3 days by SRB assay; type: functional, cell-based
HL-60 [15] = experiment: Induction of monocytic differentiation in human HL60 cells assessed as increase in CD14-FITC positive cells at 30 uM after 6 days by flow cytometry analysis; type: functional, cell-based
NB-4 [16] = experiment: Induction of granulocytic differentiation in human NB4 cells assessed as increase in CD14 positive cells at 10 to 30 uM after 6 days by FITC staining based flow cytometry analysis; type: functional, cell-based
NB-4 [17] = experiment: Induction of granulocytic differentiation in human NB4 cells assessed as increase in CD11b-APC-Cy7 positive cells at 10 to 30 uM after 6 days by flow cytometry analysis; type: functional, cell-based
NB-4 [18] = experiment: Induction of granulocytic differentiation in human NB4 cells assessed as increase in CD11c-APC positive cells at 10 to 30 uM after 6 days by flow cytometry analysis; type: functional, cell-based
HL-60 [19] = experiment: Inhibition of colony formation in human HL60 cells at 30 uM preincubated for 72 hrs followed by compound washout and measured after 7 to 10 days; type: functional, cell-based
HL-60 [20] = experiment: Induction of granulocytic differentiation in human HL60 granulocytic assessed as increase in CD11c-APC positive cells at 10 to 30 uM after 6 days by flow cytometry analysis; type: functional, cell-based
NB-4 [21] = experiment: Inhibition of colony formation in human NB4 cells at 30 uM preincubated for 72 hrs followed by compound washout and measured after 7 to 10 days; type: functional, cell-based
HL-60 [22] = experiment: Induction of granulocytic differentiation in human HL60 cells assessed as increase in CD14-FITC positive cells at 10 to 30 uM after 6 days by flow cytometry analysis; type: functional, cell-based
HL-60 [23] = experiment: Induction of granulocytic differentiation in human HL60 cells assessed as increase in CD11b-APC-Cy7 positive cells at 10 to 30 uM after 6 days by flow cytometry analysis; type: functional, cell-based
[24] = target: T2, Glycogen synthase kinase-3 beta; experiment: Inhibition of human GSK-3beta by mobility shift micro-fluidic assay

T1 sequence (P49840 whole entry): as the sequence (P49840 whole entry, looked up, stated change not applied, the tested form may be a part) above

SMILES: c1ccc(-c2noc(CSc3nnc(-c4ccncc4)o3)n2)cc1
IC50 [4]: 521 nM
Activity (NB-4 [5]): Active
Activity (HL-60 [6]): Active
Activity (NB-4 [7]): Active
Activity (HL-60 [8]): Active
Activity [9]: Active
IC50 [10]: 451 nM
Activity [11]: Active
Activity (NB-4 [12]): Active
Activity (HL-60 [13]): Active
Activity (NB-4 [14]): Active
Activity (HL-60 [15]): Active

SMILES: CC1=C(/C=C/C(C)=C/C=C/C(C)=C/C(=O)O)C(C)(C)CCC1
Activity (NB-4 [16]): Active
Activity (NB-4 [17]): Active
Activity (NB-4 [18]): Active
inhibition (HL-60 [19]): Active
Activity (HL-60 [20]): Active
inhibition (NB-4 [21]): Active
Activity (HL-60 [13]): Active
Activity (NB-4 [14]): Active
Activity (HL-60 [22]): Active
Activity (HL-60 [23]): Active

SMILES: CC[C@@]1(c2ccccc2)C2=C(CC(C)(C)CC2=O)Nc2n[nH]cc21
IC50 [24]: 515 nM

Further lines, results first:

IC50 [1]: 440 nM
IC50 [2]: 862 nM
Ratio IC50 (Homo sapiens): 1.95
inhibition [3]: 65 to 90%
inhibition at 40 min, 10 µM (GSK-3beta (H350L mutant)): 62%
SMILES: Cc1ccc(-c2ccc(/C=C3/NC(=S)NC3=O)o2)c(Br)c1

IC50 [1]: 300 nM
IC50 [2]: 576 nM
Ratio IC50 (Homo sapiens): 1.9
inhibition [3]: 80 to 81%
inhibition at 40 min, 10 µM (GSK-3beta (H350L mutant)): 75%
SMILES: N=C1NC(=O)/C(=C\c2ccc(-c3ccc(Cl)c(Cl)c3)o2)S1

From ChEMBL document CHEMBL4334438, “Discovery of novel glycogen synthase kinase-3α inhibitors: Structure-based virtual screening, preliminary SAR and biological evaluation for treatment of acute myeloid leukemia” (Eur J Med Chem, 2019)
